Tests used:
SEM cells [1] = experiment: AUC of viability dose-response curve (% viability x log10 dose units); higher = less sensitive; conditions: 48 h
In short: (§1)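 Seeding of medium-adapted leukemia cells was at 500 or 1000 cells/well in 1536-well plates, followed by 48 h at 37°C with library compounds in DMSO at 11 threefold doses from 47 μM to 0.79 nM. CellTiter-Glo One luminescence was normalised per plate to DMSO and cell-free wells and fitted as a four-parameter log-logistic function of log10 dose. Area under the curve was integrated by trapezoidal rule, with curves exceeding full viability scaled and curves failing quality control removed.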

NOMO1 [2] = experiment: as above; conditions: 48 h
In short: as §1

P12-Ichikawa [3] = experiment: as above; conditions: 48 h
In short: as §1

SEM cells [4] = experiment: cell viability relative to DMSO control; higher = less cytotoxic; conditions: 48 h
In short: (§2)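 Before seeding, each leukemia line was adapted for at least four passages in each medium. NOMO1 or SEM cells (500 cells/well) and P12-Ichikawa cells (1000 cells/well) went into 1536-well plates at 5 μl, then received library compounds in DMSO by pin dosing across 11 threefold concentrations, 47 μM to 0.79 nM. Readout was CellTiter-Glo One luminescence after 48 h at 37°C, and viability is given as a per-plate percentage of DMSO wells, with cell-free wells as background.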

NOMO1 [5] = experiment: as above; conditions: RPMI 5 mM glucose + 10% FBS, 48 h
In short: as §2

P12-Ichikawa [6] = experiment: as above; conditions: HPLM + 10% dialyzed FBS, 48 h
In short: as §2

COc1cc(C)c(Sc2cnc(NC(=O)c3ccc(CNC(C)C(C)C)cc3)s2)cc1C(=O)N1CCN(C(C)=O)CC1 (centres undefined)
Conditions	AUC of viability dose-response curve	cell viability [%]
NOMO1 [2], HPLM + 10% dialyzed FBS	430	–
NOMO1 [2], RPMI 5 mM glucose + 10% FBS	460	–
NOMO1 [2], RPMI 5 mM glucose + 10% dialyzed FBS	445	–
NOMO1 [5], 0.000781 µM	–	117
NOMO1 [5], 0.00234 µM	–	119
NOMO1 [5], 0.00702 µM	–	128
NOMO1 [5], 0.0211 µM	–	131
NOMO1 [5], 0.0632 µM	–	117
NOMO1 [5], 0.19 µM	–	126
NOMO1 [5], 0.569 µM	–	134
NOMO1 [5], 1.71 µM	–	108
NOMO1 [5], 5.12 µM	–	105
NOMO1 [5], 15.4 µM	–	107
NOMO1 [5], 46.1 µM	–	126
P12-Ichikawa [3], HPLM + 10% dialyzed FBS	448	–
P12-Ichikawa [3], RPMI 5 mM glucose + 10% FBS	418	–
P12-Ichikawa [3], RPMI 5 mM glucose + 10% dialyzed FBS	443	–
P12-Ichikawa [6], 0.000781 µM	–	118
P12-Ichikawa [6], 0.00234 µM	–	125
P12-Ichikawa [6], 0.00702 µM	–	119
P12-Ichikawa [6], 0.0211 µM	–	129
P12-Ichikawa [6], 0.0632 µM	–	119
P12-Ichikawa [6], 0.19 µM	–	118
P12-Ichikawa [6], 0.569 µM	–	117
P12-Ichikawa [6], 1.71 µM	–	107
P12-Ichikawa [6], 5.12 µM	–	103
P12-Ichikawa [6], 15.4 µM	–	90.1
P12-Ichikawa [6], 46.1 µM	–	109
SEM cells [1], HPLM + 10% dialyzed FBS	386	–
SEM cells [1], RPMI 5 mM glucose + 10% FBS	436	–
SEM cells [1], RPMI 5 mM glucose + 10% dialyzed FBS	425	–

cell viability [%], SEM cells [4]
Conditions	HPLM + 10% dialyzed FBS	RPMI 5 mM glucose + 10% FBS	RPMI 5 mM glucose + 10% dialyzed FBS
0.000781 µM	119	115	124
0.00234 µM	134	135	141
0.00702 µM	124	111	116
0.0211 µM	118	129	118
0.0632 µM	96.6	109	121
0.19 µM	105	112	118
0.569 µM	96.2	110	109
1.71 µM	104	112	102
5.12 µM	81.7	73.9	79.9
15.4 µM	42	43.4	49.7
46.1 µM	108	121	132
